Measurements reported in patent publication US20250057959A1, “PHOSPHANE GOLD(I)-N-HETEROCYCLIC CARBENE COMPLEXES FOR TREATING CANCER” (KING FAHD UNIVERSITY OF PETROLEUM AND MINERALS, priority 2023, published 2025).
Entries after “also recorded” stand apart in the source; their conditions may differ.

Key:
Format in all cases: cell-based, human
SKOV3 cells = test: In vitro wound healing assay (cell migration)
Description: Cell migration was assessed using the in vitro wound healing assay. Briefly, cells were grown to confluence and then treated with complex 6. After 24 hours of treatment, the medium was removed and cells were washed then scraped with a pipet tip to create a “wound” in the monolayer and washed again. Fresh medium containing 2% FCS was added. Wounds were photographed at times 0, 24, and 48 hours using an inverted microscope (EclipseTS/100, Nikon, Instruments Europe BV Amsterdam, The Netherlands) at magnification 4. Migration was assessed by measuring the cell-free area (in pixels) with ImageJ-NIH (National Institutes of Health) tool software. The cytoskeleton organization was evaluated by culturing SKOV3 cells onto glass coverslips and performing immunofluorescence staining for α-tubulin and F-actin. SKOV3 cells were treated for 24 hours with complex 6, fixed in 4% paraformaldehyde, permeabilized with 0.5% Triton X-100, and incubated overnight with primary antibody (Table 1) at 4° C. Primary antibody was detected using the appropriate secondary antibody together with phallotoxins (Molecular Probes) and TO-PRO-3 (Thermo Fisher Scientific). Images were acquired using an SP8 confocal microscope (Leica).

[1] = test system: A2780, A2780cis, and SKOV3 cells; test: Cell cycle analysis (PI, flow cytometry), three OvCa lines; conditions: 24 hours, 0.15 μM and 0.5 μM
Description: 2.0×10^5/mL A2780 and A2780cis cells were seeded in 6-well plates in complete medium and treated with complex 6 (0.15 μM and 0.5 μM). Results were detected by flow cytometry on a BD FACSCanto II flow cytometer. Data were analyzed using BD FACSDiva version 8.0.1 software (BD Biosciences) unless otherwise indicated. To evaluate apoptosis, tumor cells were treated for 48 hours and then stained for 15 minutes with FITC annexin-V (Thermo Fisher Scientific) and 7AAD (BD Pharmingen). […] For B-cell lymphoma/leukemia-2 (Bcl-2) and Bcl-2 associated x protein (Bax) evaluation, cells were fixed and permeabilized using FIX & PERM cell fixation and cell permeabilization kit (Life Technologies). For ROS generation, cells were stained with 5 μM MitoSOX red mitochondrial superoxide indicator (ThermoFisher Scientific) in a working solution for 30 minutes at 37° C. Cell cycle analysis was performed after 24 hours treatment with complex 6. Cells were harvested, fixed in cold 70% ethanol for 15 minutes, and stained with propidium iodide (PI) solution ([…] PI, 0.1% NP-40, 100 µg/mL PureLink RNase A, 0.1% sodium citrate) for 1 hour. The distribution of cells in different cell cycle phases was quantified using ModFit LT 4.0 software (Verity Software House, Topsham, ME, USA).

A2780 = test: MTT cell viability assay, A2780
Text: Human epithelial ovarian cancer A2780 cell line and its cisplatin-resistant clone A2780cis were obtained from Sigma-Aldrich (Milano, Italy). SKOV3 (HTB-77) cells were from the American Type Culture Collection (ATCC). The two cell lines were selected to reflect the two different stages of OvCa and different sensitivity to cisplatin. A2780 cell lines were derived from the ovarian tumor tissue of an untreated patient, while SKOV3 was from the ascitic fluids (after metastasis). Cells were authenticated in the laboratory using PowerPlex 16 HS system (Promega) and GeneMapper ID version 3.2.1 to identify DNA short tandem repeats. Cell lines were cultured in RPMI-1640 medium containing 10% fetal bovine serum (FBS) (Gibco, Thermo Fisher Scientific, U.S.A), 1% (v/v) of penicillin (10,000 units/mL)-streptomycin (10 mg/mL), and 1% (v/v) L-glutamine (200 mM) (all from Sigma- Aldrich) at 37° C. in a 5% CO2 fully humidified atmosphere. A2780cis cells were continuously exposed to 1 μM cisplatin to maintain cisplatin resistance. Adipose-derived stem cells (ADSCs) were purchased from Lonza and maintained in mesenchymal-stem-cell growth medium Bulletkit MSCGM (Lonza, Verviers, Belgium).
4.0×10^3/mL A2780, A2780cis, and SKOV3 cells were seeded in 96-well microplates in 100 μL of culture medium. Cells were allowed to adhere for 24 hours and then were treated in triplicate with increasing concentrations of gold compounds (0-1 μM). Cisplatin was included as a reference drug. Cell viability was evaluated using 3-(4,5-dimethylthiazol-2-yl)-2,5-diphenyltetrazolium bromide (MTT) assay (Sigma-Aldrich) after 72 hours of treatment. Half maximal inhibitory concentrations (IC50) were calculated using the CalcuSyn software version 2 (Biosoft, Ferguson, MO, USA). Fold resistance was calculated as the ratio of the IC50 of the A2780cis to that of the parental cell line A2780.

Structure (SMILES): CC(C)c1cccc(C(C)C)c1-n1ccn(-c2c(C(C)C)cccc2C(C)C)[c]1=[Au+][PH](C1CCCCC1)(C1CCCCC1)C1CCCCC1.F[P-](F)(F)(F)(F)F [Complex 6, [Au(IPr)(C18H33P)] PF6]
- SKOV3 migration (SKOV3 cells; 24 hours treatment): decreased the SKOV3 migration
- Remaining uncovered area (wound) (SKOV3 cells; 48 hours after scratch, highest concentration, control about 5%): ~70%
- Effect on cell cycle phases [1]: induced an accumulation in the G0/G1 phase of the cell cycle and a decrease in the S phases
- IC50 (A2780; 72 hours treatment, MTT): 140 ± 10 nM
- Cytotoxic activity ranking within the series (A2780; A2780 and A2780cis, Table 8): most potent
- Activity compared with cisplatin or auranofin in A2780 cells (A2780; comparison of IC50, Table 8): more active than cisplatin; also recorded: more active than auranofin
